Test results reported in patent EP0113998A2, “Composition and treatment for herpes simplex viral infections” (priority 1982, dated 1984).
Marks after values point to notes of the source that are not given here.

System: herpes simplex infections
Format: in vivo, Human
Conditions: for Side Effects: human, in vivo; for Number Days To > 90% Improvement: topical, 1% in aqueous 30% ethanol and 5% neopurcellin, genital and oral herpes patients, placebo 6.250
Description: A clinical study was performed in a. classical double blind format with numbered vials containing either 1% sodium deoxycholic acid (DOC)in an aqueous solution of 30% ethanol and 5% neopurcellin (a mixture of inert medium chain fatty acids). The placebo was exactly the same, except that it lacked the sodium deoxycholic acid.

SMILES | Side Effects | Number Days To > 90% Improvement [days] | Efficacy by site of infection (genital / oral herpes) (description in words, patients of Example 2) | reduction of significant signs of herpes simplex infections including erythema, edema, vesiculation, ulceration and pain (summary of findings of Example 2)
C[C@H](CCC(=O)O)[C@H]1CC[C@H]2[C@@H]3CC[C@@H]4C[C@H](O)CC[C@]4(C)[C@H]3C[C@H](O)[C@]12C [DOC, sodium deoxycholic acid] | 1* | 1.608 | – | –
CC[N+](C)(CC)CCO[C@H]1CC[C@@]2(C)C(=CC[C@H]3[C@@H]4CC[C@H]([C@@H](C)O)[C@@]4(C)CC[C@@H]32)C1 [TX047, 3-beta-[2-(Diethylamino)ethoxy]-20-beta-hydroxypregn-5-ene methyl p-toluenesulphonate] | 2* | 1.774 | approx. 60% genital, 40% oral herpes. Efficacy was greatest in the treatment of oral infec-tions and less but clearly active, and use-ful for genital herpes. | markedly reduce the significant signs of herpes simplex infections
